Results from PubChem BioAssay (NCI).
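Five compound concentrations were applied to cells in 96-well plates for 48 hours; endpoints were derived by simple linear interpolation of the resulting dose-response curve. GI50 marks 50% less growth. At the TGI there is no net growth.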

How the values were obtained:
Assay in all cases: NCI tumour cell line growth inhibition, 48 h
NCI-H23 lung = test system: NCI-H23 lung
NCI-H460 lung = test system: NCI-H460 lung
NCI-H522 lung = test system: NCI-H522 lung
NCI/ADR-RES ovarian = test system: NCI/ADR-RES ovarian
OVCAR-3 ovarian = test system: OVCAR-3 ovarian
OVCAR-4 ovarian = test system: OVCAR-4 ovarian
OVCAR-5 ovarian = test system: OVCAR-5 ovarian
OVCAR-8 ovarian = test system: OVCAR-8 ovarian
PC-3 prostate = test system: PC-3 prostate
RPMI-8226 leukemia = test system: RPMI-8226 leukemia
RXF 393 renal = test system: RXF 393 renal
SF-268 CNS = test system: SF-268 CNS
SF-295 CNS = test system: SF-295 CNS
SF-539 CNS = test system: SF-539 CNS
SK-MEL-2 melanoma = test system: SK-MEL-2 melanoma
SK-MEL-28 melanoma = test system: SK-MEL-28 melanoma
SK-MEL-5 melanoma = test system: SK-MEL-5 melanoma
SK-OV-3 ovarian = test system: SK-OV-3 ovarian
SN12C renal = test system: SN12C renal
SNB-19 CNS = test system: SNB-19 CNS
SNB-75 CNS = test system: SNB-75 CNS
SR leukemia = test system: SR leukemia
SW-620 colon = test system: SW-620 colon
T-47D breast = test system: T-47D breast
TK-10 renal = test system: TK-10 renal
U251 CNS = test system: U251 CNS
UACC-257 melanoma = test system: UACC-257 melanoma
UACC-62 melanoma = test system: UACC-62 melanoma
UO-31 renal = test system: UO-31 renal

Question: How did the TGI (NCI-H23 lung) turn out when `C=C(C)[C@@H]1CC[C@]2(C(=O)O)CC[C@]3(C)[C@H](CC[C@@H]4[C@@]5(C)C[C@@H](CC#Cc6ccc(Br)cc6)C(=O)C(C)(C)[C@@H]5CC[C@]43C)[C@@H]12` was run?
Answer: The TGI was 23.9 µM.

Question: What about the GI50 (NCI-H460 lung) of the same compound?
Answer: The GI50 was 5.71 µM.

Question: And the TGI (NCI-H460 lung)?
Answer: Its TGI is over 100 µM.

Question: And the GI50 (NCI-H522 lung)?
Answer: The GI50 was 2.95 µM.

Question: What about the TGI (NCI-H522 lung) of the same compound?
Answer: Its TGI is 75 µM.

Question: And the GI50 (NCI/ADR-RES ovarian)?
Answer: The GI50 was 62.6 µM.

Question: And the TGI (NCI/ADR-RES ovarian)?
Answer: Its TGI is over 100 µM.

Question: And the GI50 (OVCAR-3 ovarian)?
Answer: Its GI50 is 4.73 µM.

Question: What about the TGI (OVCAR-3 ovarian) of the same compound?
Answer: The TGI was over 100 µM.

Question: What about the GI50 (OVCAR-4 ovarian) of the same compound?
Answer: The GI50 was 4.95 µM.

Question: And the TGI (OVCAR-4 ovarian)?
Answer: The TGI was over 100 µM.

Question: And the GI50 (OVCAR-5 ovarian)?
Answer: The GI50 was 94.3 µM.

Question: And the TGI (OVCAR-5 ovarian)?
Answer: The TGI was over 100 µM.

Question: What about the GI50 (OVCAR-8 ovarian) of the same compound?
Answer: Its GI50 is 5.84 µM.

Question: And the TGI (OVCAR-8 ovarian)?
Answer: Its TGI is over 100 µM.

Question: And the GI50 (PC-3 prostate)?
Answer: The GI50 was 3.31 µM.

Question: And the TGI (PC-3 prostate)?
Answer: The TGI was 15.2 µM.

Question: And the GI50 (RPMI-8226 leukemia)?
Answer: The GI50 was 9.08 µM.

Question: And the TGI (RPMI-8226 leukemia)?
Answer: The TGI was over 100 µM.

Question: What about the GI50 (RXF 393 renal) of the same compound?
Answer: Its GI50 is 5.5 µM.

Question: What about the TGI (RXF 393 renal) of the same compound?
Answer: Its TGI is 21.8 µM.

Question: What about the GI50 (SF-268 CNS) of the same compound?
Answer: The GI50 was 6.23 µM.

Question: What about the TGI (SF-268 CNS) of the same compound?
Answer: The TGI was over 100 µM.

Question: What about the GI50 (SF-295 CNS) of the same compound?
Answer: Its GI50 is 12.6 µM.

Question: What about the TGI (SF-295 CNS) of the same compound?
Answer: The TGI was 81.1 µM.

Question: And the GI50 (SF-539 CNS)?
Answer: The GI50 was 22.5 µM.

Question: What about the TGI (SF-539 CNS) of the same compound?
Answer: Its TGI is over 100 µM.

Question: And the GI50 (SK-MEL-2 melanoma)?
Answer: Its GI50 is 2.58 µM.

Question: What about the TGI (SK-MEL-2 melanoma) of the same compound?
Answer: The TGI was 9.48 µM.

Question: What about the GI50 (SK-MEL-28 melanoma) of the same compound?
Answer: The GI50 was 2.62 µM.

Question: And the TGI (SK-MEL-28 melanoma)?
Answer: Its TGI is 8.25 µM.

Question: And the GI50 (SK-MEL-5 melanoma)?
Answer: Its GI50 is 34.2 µM.

Question: What about the TGI (SK-MEL-5 melanoma) of the same compound?
Answer: Its TGI is over 100 µM.

Question: What about the GI50 (SK-OV-3 ovarian) of the same compound?
Answer: Its GI50 is 20.2 µM.

Question: And the TGI (SK-OV-3 ovarian)?
Answer: The TGI was over 100 µM.

Question: And the GI50 (SN12C renal)?
Answer: Its GI50 is 2.99 µM.

Question: What about the TGI (SN12C renal) of the same compound?
Answer: Its TGI is 9.25 µM.

Question: And the GI50 (SNB-19 CNS)?
Answer: The GI50 was 6.19 µM.

Question: And the TGI (SNB-19 CNS)?
Answer: Its TGI is 64.8 µM.

Question: And the GI50 (SNB-75 CNS)?
Answer: The GI50 was 13.5 µM.

Question: And the TGI (SNB-75 CNS)?
Answer: The TGI was 34.6 µM.

Question: What about the GI50 (SR leukemia) of the same compound?
Answer: Its GI50 is 9.33 µM.

Question: And the TGI (SR leukemia)?
Answer: The TGI was over 100 µM.

Question: And the GI50 (SW-620 colon)?
Answer: The GI50 was 3.73 µM.

Question: And the TGI (SW-620 colon)?
Answer: Its TGI is over 100 µM.

Question: And the GI50 (T-47D breast)?
Answer: The GI50 was 9.02 µM.

Question: And the TGI (T-47D breast)?
Answer: Its TGI is over 100 µM.

Question: And the GI50 (TK-10 renal)?
Answer: The GI50 was 23.7 µM.

Question: And the TGI (TK-10 renal)?
Answer: Its TGI is over 100 µM.

Question: And the GI50 (U251 CNS)?
Answer: The GI50 was 2.12 µM.

Question: What about the TGI (U251 CNS) of the same compound?
Answer: The TGI was 6.72 µM.

Question: And the GI50 (UACC-257 melanoma)?
Answer: The GI50 was over 100 µM.

Question: What about the TGI (UACC-257 melanoma) of the same compound?
Answer: Its TGI is over 100 µM.

Question: And the GI50 (UACC-62 melanoma)?
Answer: Its GI50 is 2.69 µM.

Question: And the TGI (UACC-62 melanoma)?
Answer: Its TGI is 8.34 µM.

Question: And the GI50 (UO-31 renal)?
Answer: Its GI50 is over 100 µM.

Question: And the TGI (UO-31 renal)?
Answer: Its TGI is over 100 µM.
